Experimental data published in patent publication US9000027B2, “Chk1 suppresses a caspase-2 apoptotic response to DNA damage that bypasses p53, bcl-2 and caspase-3” (Dana-Farber Cancer Institute, Inc., priority 2008, dated 2015).

Legend:
p53^e7/e7 mutant embryos = test: Morpholino screen for suppressors of p53^e7/e7 radioresistance (live AO assay); type: in vivo, zebrafish; conditions: p53^e7/e7, 12.5 Gy at 18 hpf, 7.5 hpIR
Protocol: We used morpholino antisense oligonucleotides (MOs) to knock down the expression levels of 8 zebrafish S- and G2-checkpoint kinases in p53^e7/e7 mutant embryos and assessed the ability of each knockdown to restore cell death (AO reactivity) at 7.5 hours post-IR (hpIR). We also tested several double-knockdown combinations, as well as knockdowns of non-kinase checkpoint regulators (p21^waf1/cip1 and smc1). For each knockdown, we scored a minimum of 50 embryos and quantified AO staining in at least 5 embryos. To avoid the isolation of false-positives, we adjusted the concentrations of each MO to the maximal dose compatible with normal embryonic development in the p53^e7/e7 background.
Morpholino oligonucleotides (MOs) synthesized by Gene Tools™ LLC, were resuspended in sterile water at a concentration of 1 mM and delivered into zebrafish embryos at the one-cell stage by microinjection. […] For each previously unpublished MO, the working concentration was determined as the highest dose compatible with normal zebrafish development in the p53^e7/e7 background (maximal subtoxic concentration). […]
Live zebrafish embryos were dechorionated in pronase (2.0 mg/mL in egg water) for 3 to 5 min and rinsed five times in egg water at 18 hpf. […] Lateral images of each zebrafish were acquired on a Zeiss Axioplan2 fluorescence microscope (5× lens), using OpenLab software and a Hammamatsu C4742-95 digital camera. […]

caspase-3 = test: Western blot of cleaved caspase-3 in HeLa cells; type: cell-based, human; conditions: 10 Gy, 24 hpIR, Gö6976 1 μM
Protocol: (§1) Protein extract (5-60 μg) was added to 4× gel loading buffer and 10× denaturing solution (Invitrogen) in appropriate proportions, and samples were incubated at 70° C. for 10 min. Samples were run at 200V for 1 hr on a 4-12% Bis-tris gradient gel (Invitrogen). After electrophoresis, samples were transferred for 1.5 hr (350 mA) to a Nitrocellulose membrane (Millipore) using a submerged transfer apparatus (Bio-Rad). Membranes were then blocked with 5% milk in Tris-buffered saline with 0.1% tween (TBST) and probed overnight at 4° C. with the following antibodies: anti-zebrafish Chk1 (diluted 1:200), anti-zebrafish Chk2 (1:200), anti-P-Cdc2 (1:1000), anti-actin (1:2000), anti-human ATR (1:500) and Stressgen anti-human-caspase-3 (1:500) for zebrafish immunoblots; and anti-caspase-2 (1:200), Upstate anti-caspase-3 (1:500), anti-P-ATM (1:500), anti-ATM (1:500), Santa Cruz anti-human Chk1 (1:1000), Santa Cruz anti-human Chk2 (1:1000), anti-P-Chk1 (1:500), anti-P-Chk2 (1:500), anti-P-H2A.X (1:2000), anti-P-cdc25C (1:1000), anti-P-HSP27 (1:1000), anti-HSP27 (1:1000), anti-P-Cdc2 (1:1000), anti-p53 (1:1000) and anti-GAPDH (1:5000) for immunoblots of human tumor cell lysates. Detailed references for all primary antibodies can be found in the ‘Antibodies’ section elsewhere herein.

human cancer cell lines = test: Annexin V (+)/PI (-) apoptosis assay in human cancer cell lines; type: cell-based
Protocol: For the Annexin V assay, 2.0×10^5 cells treated with IR (0 or 10 Gy) and/or Gö6976 (0 or 1 μM) for 48 h were washed with cold-PBS and resuspended in staining buffer containing propidium iodide (PI) and fluorescein isothiocynate (FITC)-conjugated anti-AnnexinV antibody (MEBCYTO apoptosis kit, MBL international, MA). After 30 min incubation at room temperature, cells were analyzed by flow cytometry (FACScaliber, BD Bioscience, San Jose, Calif.) and CellQuest analysis program (BD Bioscience). The cells in PI-negative and AnnexinV-positive fraction were evaluated as apoptosis. Data were collected from two independent experiments in which each condition (shRNA, presence or absence of Gö6976) was analyzed in triplicate.

ATR = test: Western blot of ATR activity (Chk1 phosphorylation at Ser317) in HeLa cells; type: cell-based, human; conditions: 10 Gy IR+Gö6976 1 μM
Protocol: as §1

Molecule | AO reactivity restored, of the p53+/+ response (p53^e7/e7 mutant embryos) [%] | levels of cleaved caspase-3 (caspase-3) | apoptosis (human cancer cell lines; TP53+/+ HCT116 cells, IR+Gö6976) | apoptosis versus single- or no-treatment controls (human cancer cell lines; TP53 null or mutant lines, 10 Gy IR+Gö6976, 48 hpIR) | phosphorylated Chk1 at Ser317 (readout for ATR activity) (ATR)
chk1 MO: morpholino against zebrafish chk1 atg/5'UTR, aggcacagccattatgcaatcttcg (SEQ ID NO: 11) (AGGCACAGCCATTATGCAATCTTCG; all phosphorodiamidate morpholino (PMO)) | 87.7 |  |  |  | 
Cn1c2ccccc2c2c3c(c4c5ccccc5n(CCC#N)c4c21)CNC3=O [Gö6976] |  | negligible | moderate, yet significant increase in apoptosis | increases in caspase-2 cleavage and apoptosis | synergistic increases
